# Results taken from ChEMBL document CHEMBL1201861, “Genomics of Drug Sensitity in Cancer screening data, Wellcome Trust Sanger Institute”.
# How the values were obtained:
# Assay in all cases: cells
# MZ2-MEL = assay type: functional, cell-based, Homo sapiens; settings: Homo sapiens, MZ2-MEL;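 further: growth inhibition of MZ2-MEL cells read out with a cell viability assay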
# Description: SANGER: Inhibition of human MZ2-MEL cell growth in a cell viability assay.
# NCI-H1838 = assay type: functional, cell-based, Homo sapiens; settings: Homo sapiens, NCI-H1838;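 further: growth inhibition of NCI-H1838 cells, determined with a cell viability readout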
# Description: SANGER: Inhibition of human NCI-H1838 cell growth in a cell viability assay.
# SK-MEL-2 = assay type: functional, cell-based, Homo sapiens; settings: Homo sapiens, SK-MEL-2;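 further: growth inhibition of human SK-MEL-2 cells measured with a cell viability assay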
# Description: SANGER: Inhibition of human SK-MEL-2 cell growth in a cell viability assay.
# J-RT3-T3-5 = assay type: functional, cell-based, Homo sapiens; settings: Homo sapiens, J-RT3-T3-5;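 further: cell viability assay measuring growth inhibition of human J-RT3-T3-5 cells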
# Description: SANGER: Inhibition of human J-RT3-T3-5 cell growth in a cell viability assay.
# SHP77 = assay type: functional, cell-based, Homo sapiens, SHP-77; settings: Homo sapiens, SHP77;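 further: growth inhibition of human SHP-77 cells measured by a cell viability assay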
# Description: SANGER: Inhibition of human SHP-77 cell growth in a cell viability assay.
# NCI-H2126 = assay type: functional, cell-based, Homo sapiens; settings: Homo sapiens, NCI-H2126;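 further: growth inhibition of the cancer cell line, determined with a cell viability readout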
# Description: SANGER: Inhibition of human NCI-H2126 cell growth in a cell viability assay.
# NCI-N87 = assay type: functional, cell-based, Homo sapiens; settings: Homo sapiens, NCI-N87;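 further: growth inhibition of human NCI-N87 cells, read out with a cell viability assay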
# Description: SANGER: Inhibition of human NCI-N87 cell growth in a cell viability assay.
# UACC-257 = assay type: functional, cell-based, Homo sapiens; settings: Homo sapiens, UACC-257
# Description: SANGER: Inhibition of human UACC-257 cell growth in a cell viability assay.
# NB12 = assay type: functional, cell-based, Homo sapiens; settings: Homo sapiens, NB12;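 further: growth inhibition of human NB12 cells, read out by a cell viability assay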
# Description: SANGER: Inhibition of human NB12 cell growth in a cell viability assay.
# SJSA-1 = assay type: functional, cell-based, Homo sapiens; settings: Homo sapiens, SJSA-1;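 further: growth inhibition of human SJSA-1 cells, read out through a cell viability measurement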
# Description: SANGER: Inhibition of human SJSA-1 cell growth in a cell viability assay.
# SK-UT-1 = assay type: functional, cell-based, Homo sapiens; settings: Homo sapiens, SK-UT-1;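 further: growth inhibition of SK-UT-1 cells, measured by a cell viability assay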
# Description: SANGER: Inhibition of human SK-UT-1 cell growth in a cell viability assay.
# SH-4 = assay type: functional, cell-based, Homo sapiens; settings: Homo sapiens, SH-4;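 further: growth inhibition of SH-4 cells, read out with a cell viability assay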
# Description: SANGER: Inhibition of human SH-4 cell growth in a cell viability assay.
# DJM-1 = assay type: functional, cell-based, Homo sapiens; settings: Homo sapiens, DJM-1;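 further: growth inhibition of human DJM-1 cells, read out by a cell viability assay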
# Description: SANGER: Inhibition of human DJM-1 cell growth in a cell viability assay.
# SBC-1 = assay type: functional, cell-based, Homo sapiens; settings: Homo sapiens, SBC-1;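 further: cell viability assay measuring growth inhibition of the SBC-1 cell line, IC50 being the concentration that halves growth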
# Description: SANGER: Inhibition of human SBC-1 cell growth in a cell viability assay.
# A101D = assay type: functional, cell-based, Homo sapiens; settings: Homo sapiens, A101D;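 further: growth inhibition of the cell line, measured with a viability assay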
# Description: SANGER: Inhibition of human A101D cell growth in a cell viability assay.
# MFM-223 = assay type: functional, cell-based, Homo sapiens; settings: Homo sapiens, MFM-223
# Description: SANGER: Inhibition of human MFM-223 cell growth in a cell viability assay.
# SW 962 = assay type: functional, cell-based, Homo sapiens; settings: Homo sapiens, SW 962;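 further: growth inhibition of human SW962 cells, read out by a cell viability assay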
# Description: SANGER: Inhibition of human SW962 cell growth in a cell viability assay.
# LB831-BLC = assay type: functional, cell-based, Homo sapiens; settings: Homo sapiens, LB831-BLC;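 further: growth inhibition of LB831-BLC cells, read out with a cell viability assay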
# Description: SANGER: Inhibition of human LB831-BLC cell growth in a cell viability assay.
# A4-Fuk = assay type: functional, cell-based, Homo sapiens; settings: Homo sapiens, A4-Fuk;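 further: growth inhibition of A4-Fuk cells, read out by a cell viability assay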
# Description: SANGER: Inhibition of human A4-Fuk cell growth in a cell viability assay.
# NCI-H1770 = assay type: functional, cell-based, Homo sapiens; settings: Homo sapiens, NCI-H1770;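 further: growth inhibition of NCI-H1770 cells determined with a viability readout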
# Description: SANGER: Inhibition of human NCI-H1770 cell growth in a cell viability assay.
# MFH-ino = assay type: functional, cell-based, Homo sapiens; settings: Homo sapiens, MFH-ino;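 further: growth inhibition of human MFH-ino cells, read out by a cell viability assay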
# Description: SANGER: Inhibition of human MFH-ino cell growth in a cell viability assay.
# AM-38 = assay type: functional, cell-based, Homo sapiens; settings: Homo sapiens, AM-38;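 further: growth inhibition of AM-38 cells of human origin, read out by a cell viability assay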
# Description: SANGER: Inhibition of human AM-38 cell growth in a cell viability assay.
# LS-411N = assay type: functional, cell-based, Homo sapiens; settings: Homo sapiens, LS-411N
# KM-H2 = assay type: functional, cell-based, Homo sapiens; settings: Homo sapiens, KM-H2;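 further: growth inhibition of KM-H2 cells, read out by a cell viability assay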
# Description: SANGER: Inhibition of human KM-H2 cell growth in a cell viability assay.
# HAL-01 = assay type: functional, cell-based, Homo sapiens; settings: Homo sapiens, HAL-01;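 further: growth inhibition of human HAL-01 cells, read out with a cell viability assay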
# Description: SANGER: Inhibition of human HAL-01 cell growth in a cell viability assay.
# Mo = assay type: functional, cell-based, Homo sapiens; settings: Homo sapiens, Mo
# Description: SANGER: Inhibition of human Mo-T cell growth in a cell viability assay.
# BB49-HNC = assay type: functional, cell-based, Homo sapiens; settings: Homo sapiens, BB49-HNC;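 further: cell viability assay read-out, reported as inhibition of BB49-HNC cell growth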
# Description: SANGER: Inhibition of human BB49-HNC cell growth in a cell viability assay.
# GR-ST = assay type: functional, cell-based, Homo sapiens; settings: Homo sapiens, GR-ST
# Description: SANGER: Inhibition of human GR-ST cell growth in a cell viability assay.
# COLO-824 = assay type: functional, cell-based, Homo sapiens; settings: Homo sapiens, COLO-824
# Description: SANGER: Inhibition of human COLO-824 cell growth in a cell viability assay.
# KLE = assay type: functional, cell-based, Homo sapiens; settings: Homo sapiens, KLE;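 further: growth inhibition of human KLE cells, read out with a cell viability assay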
# Description: SANGER: Inhibition of human KLE cell growth in a cell viability assay.
# HC-1 = assay type: functional, cell-based, Homo sapiens; settings: Homo sapiens, HC-1;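 further: growth inhibition of HC-1 cells measured by a cell viability assay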
# Description: SANGER: Inhibition of human HC-1 cell growth in a cell viability assay.
# HCC 2998 = assay type: functional, cell-based, Homo sapiens; settings: Homo sapiens, HCC 2998;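 further: growth inhibition of human HCC2998 cells, measured with a cell viability read-out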
# Description: SANGER: Inhibition of human HCC2998 cell growth in a cell viability assay.
# A3-KAW = assay type: functional, cell-based, Homo sapiens; settings: Homo sapiens, A3-KAW;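 further: growth inhibition of human A3-KAW cells, read out with a cell viability assay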
# Description: SANGER: Inhibition of human A3-KAW cell growth in a cell viability assay.
# HCC1187 = assay type: functional, cell-based, Homo sapiens; settings: Homo sapiens, HCC1187;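 further: growth inhibition of HCC1187 cells, read out with a cell viability assay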
# Description: SANGER: Inhibition of human HCC1187 cell growth in a cell viability assay.
# ONS-76 = assay type: functional, cell-based, Homo sapiens; settings: Homo sapiens, ONS-76;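 further: growth inhibition of human ONS-76 cells, read out with a cell viability assay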
# Description: SANGER: Inhibition of human ONS-76 cell growth in a cell viability assay.
# LOX IMVI = assay type: functional, cell-based, Homo sapiens; settings: Homo sapiens, LOX IMVI
# Description: SANGER: Inhibition of human LOXIMVI cell growth in a cell viability assay.
# ACN = assay type: functional, cell-based, Homo sapiens; settings: Homo sapiens, ACN;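 further: growth inhibition of the human ACN cell line, read out via cell viability testing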
# Description: SANGER: Inhibition of human ACN cell growth in a cell viability assay.
# TE-9 = assay type: functional, cell-based, Homo sapiens; settings: Homo sapiens, TE-9;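 further: cell growth inhibition, measured with a cell viability readout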
# Description: SANGER: Inhibition of human TE-9 cell growth in a cell viability assay.
# RPMI-8226 = assay type: functional, cell-based, Homo sapiens; settings: Homo sapiens, RPMI-8226
# Description: SANGER: Inhibition of human RPMI-8226 cell growth in a cell viability assay.
# DMS-114 = assay type: functional, cell-based, Homo sapiens; settings: Homo sapiens, DMS-114
# COR-L88 = assay type: functional, cell-based, Homo sapiens; settings: Homo sapiens, COR-L88;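 further: growth inhibition of COR-L88 cells, read out with a cell viability assay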
# Description: SANGER: Inhibition of human COR-L88 cell growth in a cell viability assay.
# L-428 = assay type: functional, cell-based, Homo sapiens; settings: Homo sapiens, L-428
# Description: SANGER: Inhibition of human L-428 cell growth in a cell viability assay.
# SNU1 = assay type: functional, cell-based, Homo sapiens; settings: Homo sapiens, SNU1;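 further: growth inhibition of human NCI-SNU-1 cells, measured with a cell viability assay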
# Description: SANGER: Inhibition of human NCI-SNU-1 cell growth in a cell viability assay.
# SCH = assay type: functional, cell-based, Homo sapiens; settings: Homo sapiens, SCH;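 further: growth inhibition of human SCH cells, read out in a cell viability assay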
# Description: SANGER: Inhibition of human SCH cell growth in a cell viability assay.
# ES4 = assay type: functional, cell-based, Homo sapiens; settings: Homo sapiens, ES4;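 further: growth inhibition of human ES4 cells, read out by a cell viability assay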
# Description: SANGER: Inhibition of human ES4 cell growth in a cell viability assay.
# NCI-H1299 = assay type: functional, cell-based, Homo sapiens; settings: Homo sapiens, NCI-H1299;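 further: growth inhibition of human NCI-H1299 cells, read out by a cell viability assay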
# Description: SANGER: Inhibition of human NCI-H1299 cell growth in a cell viability assay.
# HCC2218 = assay type: functional, cell-based, Homo sapiens; settings: Homo sapiens, HCC2218;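 further: cell viability assay read-out, with IC50 given as the concentration that inhibits growth of the cell line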
# Description: SANGER: Inhibition of human HCC2218 cell growth in a cell viability assay.
# HT = assay type: functional, cell-based, Homo sapiens; settings: Homo sapiens, HT
# Description: SANGER: Inhibition of human HT cell growth in a cell viability assay.
# HCC2157 = assay type: functional, cell-based, Homo sapiens; settings: Homo sapiens, HCC2157;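 further: growth inhibition of the cancer cell line, read out as cell viability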
# Description: SANGER: Inhibition of human HCC2157 cell growth in a cell viability assay.
smiles,measurement,setting,value
Cc1cn(-c2cc(NC(=O)c3ccc(C)c(Nc4nccc(-c5cccnc5)n4)c3)cc(C(F)(F)F)c2)cn1 [NILOTINIB],IC50,MZ2-MEL,> 2000 nM
same,IC50,NCI-H1838,> 2000 nM
same,IC50,SK-MEL-2,> 2000 nM
same,IC50,J-RT3-T3-5,> 2000 nM
same,IC50,SHP77,> 2000 nM
same,IC50,NCI-H2126,> 2000 nM
same,IC50,NCI-N87,> 2000 nM
same,IC50,UACC-257,> 2000 nM
same,IC50,NB12,> 2000 nM
same,IC50,SJSA-1,> 2000 nM
same,IC50,SK-UT-1,> 2000 nM
same,IC50,SH-4,> 2000 nM
same,IC50,DJM-1,> 2000 nM
same,IC50,SBC-1,> 2000 nM
same,IC50,A101D,> 2000 nM
same,IC50,MFM-223,> 2000 nM
same,IC50,SW 962,> 2000 nM
same,IC50,LB831-BLC,> 2000 nM
same,IC50,A4-Fuk,> 2000 nM
same,IC50,NCI-H1770,> 2000 nM
same,IC50,MFH-ino,> 2000 nM
same,IC50,AM-38,> 2000 nM
same,IC50,LS-411N,> 2000 nM
same,IC50,KM-H2,> 2000 nM
same,IC50,HAL-01,> 2000 nM
same,IC50,Mo,> 2000 nM
same,IC50,BB49-HNC,> 2000 nM
same,IC50,GR-ST,> 2000 nM
same,IC50,COLO-824,> 2000 nM
same,IC50,KLE,> 2000 nM
same,IC50,HC-1,> 2000 nM
same,IC50,HCC 2998,> 2000 nM
same,IC50,A3-KAW,> 2000 nM
same,IC50,HCC1187,> 2000 nM
same,IC50,ONS-76,> 2000 nM
same,IC50,LOX IMVI,> 2000 nM
same,IC50,ACN,1550 nM
same,IC50,TE-9,> 2000 nM
same,IC50,RPMI-8226,> 2000 nM
same,IC50,DMS-114,> 2000 nM
same,IC50,COR-L88,> 2000 nM
same,IC50,L-428,> 2000 nM
same,IC50,SNU1,> 2000 nM
same,IC50,SCH,> 2000 nM
same,IC50,ES4,> 2000 nM
same,IC50,NCI-H1299,> 2000 nM
same,IC50,HCC2218,> 2000 nM
same,IC50,HT,> 2000 nM
Cn1cnc2c(F)c(Nc3ccc(Br)cc3Cl)c(C(=O)NOCCO)cc21 [SELUMETINIB],IC50,MZ2-MEL,394 nM
same,IC50,HCC2157,> 4000 nM
same,IC50,SK-MEL-2,405 nM
same,IC50,J-RT3-T3-5,> 4000 nM
same,IC50,SHP77,> 4000 nM
same,IC50,NCI-N87,> 4000 nM
same,IC50,UACC-257,322 nM
same,IC50,NB12,> 4000 nM
same,IC50,SJSA-1,3780 nM
same,IC50,SH-4,166 nM
same,IC50,DJM-1,> 4000 nM
same,IC50,SBC-1,> 4000 nM
same,IC50,A101D,240 nM
same,IC50,MFM-223,> 4000 nM
same,IC50,SW 962,> 4000 nM
same,IC50,LB831-BLC,> 4000 nM
same,IC50,A4-Fuk,> 4000 nM
same,IC50,NCI-H1770,> 4000 nM
same,IC50,AM-38,> 4000 nM
same,IC50,LS-411N,> 4000 nM
same,IC50,KM-H2,> 4000 nM
same,IC50,HAL-01,1700 nM
same,IC50,Mo,> 4000 nM
same,IC50,BB49-HNC,> 4000 nM
same,IC50,GR-ST,> 4000 nM
same,IC50,COLO-824,> 4000 nM
same,IC50,KLE,> 4000 nM
same,IC50,HCC 2998,269 nM
same,IC50,A3-KAW,3910 nM
same,IC50,HCC1187,> 4000 nM
same,IC50,ONS-76,245 nM
same,IC50,LOX IMVI,859 nM
same,IC50,ACN,567 nM
same,IC50,TE-9,> 4000 nM
same,IC50,RPMI-8226,740 nM
same,IC50,DMS-114,> 4000 nM
same,IC50,COR-L88,> 4000 nM
same,IC50,L-428,> 4000 nM
same,IC50,SNU1,1770 nM
same,IC50,SCH,> 4000 nM
same,IC50,ES4,> 4000 nM
same,IC50,NCI-H1299,> 4000 nM
same,IC50,HCC2218,2480 nM
same,IC50,HT,> 4000 nM
CO[C@H]1C[C@@H]2CC[C@@H](C)[C@@](O)(O2)C(=O)C(=O)N2CCCC[C@H]2C(=O)O[C@H]([C@H](C)C[C@@H]2CC[C@@H](OC(=O)C(C)(CO)CO)[C@H](OC)C2)CC(=O)[C@H](C)/C=C(\C)[C@@H](O)[C@@H](OC)C(=O)[C@H](C)C[C@H](C)/C=C/C=C/C=C/1C [TEMSIROLIMUS],IC50,MZ2-MEL,56.9 nM
same,IC50,NCI-H1838,> 200 nM
same,IC50,SK-MEL-2,> 200 nM
same,IC50,J-RT3-T3-5,12.4 nM
same,IC50,SHP77,> 200 nM
same,IC50,NCI-H2126,58 nM
same,IC50,NCI-N87,175 nM
same,IC50,UACC-257,> 200 nM
same,IC50,NB12,> 200 nM
same,IC50,SJSA-1,143 nM
same,IC50,SK-UT-1,64.1 nM
same,IC50,SH-4,> 200 nM
same,IC50,DJM-1,> 200 nM
same,IC50,SBC-1,0.444 nM
same,IC50,A101D,48.7 nM
same,IC50,MFM-223,> 200 nM
same,IC50,SW 962,15.6 nM
same,IC50,LB831-BLC,> 200 nM
same,IC50,A4-Fuk,81.8 nM
same,IC50,NCI-H1770,> 200 nM
same,IC50,MFH-ino,> 200 nM
same,IC50,AM-38,> 200 nM
same,IC50,LS-411N,> 200 nM
same,IC50,KM-H2,> 200 nM
same,IC50,HAL-01,> 200 nM
same,IC50,Mo,> 200 nM
same,IC50,BB49-HNC,> 200 nM
same,IC50,GR-ST,33.3 nM
same,IC50,COLO-824,> 200 nM
same,IC50,KLE,> 200 nM
same,IC50,HC-1,101 nM
same,IC50,HCC 2998,> 200 nM
same,IC50,A3-KAW,10.4 nM
same,IC50,HCC1187,> 200 nM
same,IC50,ONS-76,33 nM
same,IC50,LOX IMVI,120 nM
same,IC50,ACN,13 nM
same,IC50,TE-9,> 200 nM
same,IC50,RPMI-8226,4.15 nM
same,IC50,DMS-114,119 nM
same,IC50,COR-L88,> 200 nM
same,IC50,L-428,> 200 nM
same,IC50,SNU1,4.81 nM
same,IC50,SCH,> 200 nM
same,IC50,ES4,37.8 nM
same,IC50,NCI-H1299,186 nM
same,IC50,HCC2218,> 200 nM
same,IC50,HT,27.6 nM
